In ChEMBL document CHEMBL5543153, “Discovery of a Potent Dual Son of Sevenless 1 (SOS1) and Epidermal Growth Factor Receptor (EGFR) Inhibitor for the Treatment of Prostate Cancer” (J Med Chem, 2024):
Calls of active or inactive are those of the source. The calls are words filed in the database; no cut-off is given here.

Assays:
[1] = biological target: T1, Son of sevenless homolog 1 (Homo sapiens) (UniProt Q07889); experiment: Inhibition of human recombinant SOS1 at 10 uM relative to control
T1 sequence (whole entry): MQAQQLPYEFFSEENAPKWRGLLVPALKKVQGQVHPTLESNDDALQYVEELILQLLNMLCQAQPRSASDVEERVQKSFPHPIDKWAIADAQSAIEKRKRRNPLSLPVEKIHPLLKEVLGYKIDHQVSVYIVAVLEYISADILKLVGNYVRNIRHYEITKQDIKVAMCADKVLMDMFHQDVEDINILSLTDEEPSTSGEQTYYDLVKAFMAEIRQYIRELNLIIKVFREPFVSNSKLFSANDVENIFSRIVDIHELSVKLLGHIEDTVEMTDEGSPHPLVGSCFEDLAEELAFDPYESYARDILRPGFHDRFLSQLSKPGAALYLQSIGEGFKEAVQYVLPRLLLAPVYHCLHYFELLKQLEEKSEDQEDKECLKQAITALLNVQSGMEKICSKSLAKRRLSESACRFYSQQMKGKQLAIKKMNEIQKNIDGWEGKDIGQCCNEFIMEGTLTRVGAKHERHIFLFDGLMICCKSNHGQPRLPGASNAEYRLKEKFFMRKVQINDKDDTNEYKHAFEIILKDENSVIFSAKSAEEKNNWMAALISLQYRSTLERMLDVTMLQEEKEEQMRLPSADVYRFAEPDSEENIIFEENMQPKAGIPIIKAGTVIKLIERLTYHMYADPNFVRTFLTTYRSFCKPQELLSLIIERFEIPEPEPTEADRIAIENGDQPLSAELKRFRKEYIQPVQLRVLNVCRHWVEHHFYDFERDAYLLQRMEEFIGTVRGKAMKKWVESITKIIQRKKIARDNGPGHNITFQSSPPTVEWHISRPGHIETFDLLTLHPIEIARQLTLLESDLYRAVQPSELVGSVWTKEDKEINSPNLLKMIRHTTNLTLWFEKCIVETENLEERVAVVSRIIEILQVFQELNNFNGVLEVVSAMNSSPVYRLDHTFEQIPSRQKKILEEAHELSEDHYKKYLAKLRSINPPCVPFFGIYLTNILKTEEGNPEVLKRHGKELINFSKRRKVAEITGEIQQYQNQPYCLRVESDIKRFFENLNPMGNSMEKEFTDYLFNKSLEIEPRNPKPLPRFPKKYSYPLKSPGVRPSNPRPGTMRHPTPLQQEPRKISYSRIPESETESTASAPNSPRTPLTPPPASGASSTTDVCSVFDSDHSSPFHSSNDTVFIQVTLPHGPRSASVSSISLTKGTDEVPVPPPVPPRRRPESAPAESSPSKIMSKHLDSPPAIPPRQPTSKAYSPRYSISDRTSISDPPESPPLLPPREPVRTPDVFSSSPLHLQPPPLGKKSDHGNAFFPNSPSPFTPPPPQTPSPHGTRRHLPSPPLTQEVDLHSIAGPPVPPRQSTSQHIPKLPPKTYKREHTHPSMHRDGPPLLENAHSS

[2] = biological target: Epidermal growth factor receptor (Homo sapiens, UniProt P00533); experiment: Inhibition of EGFR (unknown origin) using ultra ULight GT peptide as substrate at 10 uM incubated for 2 hrs relative to control
[3] = tested on: PC-3; experiment: cells; type: functional, cell-based; conditions: Homo sapiens, PC-3, 72 h
Description: Antiproliferative activity against human PC-3 cells assessed as inhibition of cell growth incubated for 72 hrs by MTT assay

[4] = tested on: PC-3; experiment: cells; conditions: Homo sapiens, PC-3, 72 h
Description: Synergistic antiproliferative activity against human PC-3 cells assessed as inhibition of cell growth incubated for 72 hrs in presence of gefitinib by MTT assay

Chain of Epidermal growth factor receptor (P00533 whole entry): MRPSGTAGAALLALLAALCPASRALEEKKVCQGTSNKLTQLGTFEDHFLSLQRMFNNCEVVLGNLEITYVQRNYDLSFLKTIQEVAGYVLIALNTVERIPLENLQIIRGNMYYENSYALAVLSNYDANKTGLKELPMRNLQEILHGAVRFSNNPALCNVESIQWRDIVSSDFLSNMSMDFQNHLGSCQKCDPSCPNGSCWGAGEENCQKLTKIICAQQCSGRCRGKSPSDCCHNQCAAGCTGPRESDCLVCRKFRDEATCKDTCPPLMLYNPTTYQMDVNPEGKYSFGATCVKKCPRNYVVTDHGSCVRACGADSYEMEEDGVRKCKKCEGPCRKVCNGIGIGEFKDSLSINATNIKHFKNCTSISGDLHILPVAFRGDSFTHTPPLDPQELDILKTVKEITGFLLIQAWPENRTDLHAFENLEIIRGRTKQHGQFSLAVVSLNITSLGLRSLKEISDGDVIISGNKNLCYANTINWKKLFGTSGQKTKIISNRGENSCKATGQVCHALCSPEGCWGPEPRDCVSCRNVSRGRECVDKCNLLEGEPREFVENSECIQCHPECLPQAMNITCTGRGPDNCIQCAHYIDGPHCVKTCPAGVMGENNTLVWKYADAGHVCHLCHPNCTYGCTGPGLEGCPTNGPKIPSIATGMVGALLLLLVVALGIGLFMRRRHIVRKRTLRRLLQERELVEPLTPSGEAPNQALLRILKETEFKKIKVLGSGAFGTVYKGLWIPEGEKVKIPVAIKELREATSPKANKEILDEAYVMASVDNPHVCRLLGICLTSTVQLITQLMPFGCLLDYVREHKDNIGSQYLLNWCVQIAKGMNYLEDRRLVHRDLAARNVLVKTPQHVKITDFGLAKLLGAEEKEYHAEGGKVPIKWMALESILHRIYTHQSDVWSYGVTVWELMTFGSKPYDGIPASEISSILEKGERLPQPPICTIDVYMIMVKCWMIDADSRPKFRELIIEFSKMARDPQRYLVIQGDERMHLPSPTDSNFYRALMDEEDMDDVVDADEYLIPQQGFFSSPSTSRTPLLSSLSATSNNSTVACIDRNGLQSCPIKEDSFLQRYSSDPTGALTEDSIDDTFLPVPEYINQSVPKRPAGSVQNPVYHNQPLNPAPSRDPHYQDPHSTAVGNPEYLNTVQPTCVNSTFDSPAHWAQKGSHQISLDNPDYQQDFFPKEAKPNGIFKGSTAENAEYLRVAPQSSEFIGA

Row | SMILES | inhibition [1] | inhibition [2] [%] | IC50 [3] [µM] | IC50 [4] [µM]
1 | c1ccc2c(Nc3ccc4c(c3)OCO4)ncnc2c1 | inactive | 91 |  | 
2 | COc1cc2nc(C)nc(N[C@H](C)c3cc(N)cc(C(F)(F)F)c3)c2cc1O[C@H]1CCOC1 |  |  | 8.75 | 1.37
3 | COc1cc2ncnc(NCc3ccc4c(c3)OCO4)c2cc1OC | 41% | 92 |  | 
4 | Cc1cccc(Nc2ncnc3c2cnn3C)c1 | inactive | 73 |  | 
5 | Clc1cccc(Nc2ncnc3sc4c(c23)CCCC4)c1 | inactive | 74 |  | 
6 | COc1cc2ncnc(NCc3ccccc3C(F)(F)F)c2cc1OC | 43% | 90 |  | 
7 | CCc1cc2c(Nc3ccc(OC)cc3)ncnc2s1 | inactive | 64 |  | 
8 | CCc1cc2c(Nc3ccc(Cl)cc3)ncnc2s1 | inactive | 66 |  | 
9 | c1ccc(Nc2ncnc3sc4c(c23)CCC4)cc1 | inactive | 70 |  | 
10 | Cc1sc2ncnc(Nc3ccc(F)cc3)c2c1C | inactive | 62 |  | 
11 | Clc1ccc(CNc2ncnc3ccccc23)cc1 | 47% | 84 |  | 
12 | COc1cc2ncnc(NCc3cccc(Cl)c3)c2cc1OC | 56% | 95 |  | 
